IC50 data for 28 molecules are collected here from patent US12281079B2, “Quinoline derivatives, processes for their preparation and uses thereof for the treatment of cancer” (Lead Discovery Center GmbH, priority 2019, dated 2025).

Test [1] deals with mitochondrial RNA polymerase (POLRMT) (Mus musculus, UniProt Q8BKF1). Kind of test: Homogeneous TR-FRET assay for mitochondrial transcription activity. The class given is biochemical. Conditions: homogeneous TR-FRET assay according to Example 4. A digest of the protocol:
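Read-out is TR-FRET (ex 340, em 665 nm) from two adjacent labelled DNA probes annealing to the 407 bp transcript after EDTA/700 mM NaCl stop. Reaction: murine POLRMT, TFAM, TFB2M and LSP plasmid template, compound 10 μM or serial dilution, 10 min rt preincubation, 500 μM each nucleotide, 2 h rt.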
On the technique in general: TR-FRET usually uses a lanthanide donor and a delayed reading to cut background.

The test system of test [2] is mitochondrial transcription (7S RNA) in HeLa cells. Kind of test: Quantitative real time-PCR assay of inhibition of mitochondrial transcription (7S RNA) in HeLa cells. The class given is cell-based. Conditions: Homo sapiens, 4 h compound incubation, according to Example 5, read-out: cellular qPCR assay. A digest of the protocol:
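HeLa cells were exposed to compound dilution series or DMSO for 4 h, then RNA was extracted, normalized and reverse-transcribed. TaqMan qRT-PCR measured short-lived 7S RNA, with POLRMT as nuclear-transcription readout and TBP as housekeeping gene. Biological triplicates were analyzed by ΔΔCt and reported as Rq % (2−ΔΔCt).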

Sequence of mitochondrial RNA polymerase (POLRMT) (Q8BKF1 42-1207): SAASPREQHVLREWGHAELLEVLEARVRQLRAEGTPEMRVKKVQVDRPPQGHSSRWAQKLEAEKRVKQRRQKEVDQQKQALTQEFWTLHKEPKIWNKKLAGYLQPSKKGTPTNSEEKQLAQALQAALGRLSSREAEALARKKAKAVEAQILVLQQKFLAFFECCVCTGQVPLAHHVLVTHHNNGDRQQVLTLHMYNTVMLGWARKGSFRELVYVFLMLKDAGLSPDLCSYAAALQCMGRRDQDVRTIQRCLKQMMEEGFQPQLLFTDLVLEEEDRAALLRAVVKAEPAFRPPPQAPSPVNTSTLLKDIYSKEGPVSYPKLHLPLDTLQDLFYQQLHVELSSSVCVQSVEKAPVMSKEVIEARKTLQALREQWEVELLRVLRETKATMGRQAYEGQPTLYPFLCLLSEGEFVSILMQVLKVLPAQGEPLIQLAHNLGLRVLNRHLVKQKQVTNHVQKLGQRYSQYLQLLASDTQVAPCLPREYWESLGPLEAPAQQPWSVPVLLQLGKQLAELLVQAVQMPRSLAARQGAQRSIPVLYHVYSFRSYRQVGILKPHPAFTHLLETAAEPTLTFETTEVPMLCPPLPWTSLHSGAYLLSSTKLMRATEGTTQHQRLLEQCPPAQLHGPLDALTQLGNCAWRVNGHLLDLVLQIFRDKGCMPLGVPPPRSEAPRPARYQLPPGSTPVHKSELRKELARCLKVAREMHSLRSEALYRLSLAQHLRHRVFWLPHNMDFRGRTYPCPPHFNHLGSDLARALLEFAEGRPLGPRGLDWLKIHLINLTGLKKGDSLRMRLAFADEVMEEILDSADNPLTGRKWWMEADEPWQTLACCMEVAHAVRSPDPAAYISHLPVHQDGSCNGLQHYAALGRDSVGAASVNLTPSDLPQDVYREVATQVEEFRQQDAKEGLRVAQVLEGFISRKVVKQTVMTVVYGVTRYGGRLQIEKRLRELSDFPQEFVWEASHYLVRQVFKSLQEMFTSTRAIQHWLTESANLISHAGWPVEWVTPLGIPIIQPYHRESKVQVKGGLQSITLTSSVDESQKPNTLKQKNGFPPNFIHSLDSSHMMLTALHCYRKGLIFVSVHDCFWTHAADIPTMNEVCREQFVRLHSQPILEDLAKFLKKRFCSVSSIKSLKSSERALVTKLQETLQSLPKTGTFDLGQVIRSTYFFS

On to `Cc1cc(-c2c(C)cccc2C)c2ccc(O[C@H](C)C(=O)N3CCC[C@H](CC(=O)O)C3)cc2n1` [Compound 124, 2-[(3R)-1-[(2R)-2-[[4-(2,6-dimethylphenyl)-2-methyl-7-quinolyl]oxy]propanoyl]-3-piperidyl]acetic acid], for which the IC50 in test [1] is 100 to 1000 nM; in test [2], 50 to 500 nM.
For the molecule `CC(Oc1ccc2c(-c3ccc(F)cc3Cl)ccnc2n1)C(=O)N1CCC[C@H](CC(=O)O)C1` (mixture of isomers) [Compound 80, 2-[rac-(3R)-1-[2-[[5-(2-chloro-4-fluoro-phenyl)-1,8-naphthyridin-2-yl]oxy]propanoyl]-3-piperidyl]acetic acid], the IC50 in test [1] is 1000 to 10000 nM; in test [2], 50 to 500 nM.
As for `Cc1cc(-c2ccc(F)cc2Cl)c2ccc(O[C@H](C)C(=O)N3CCC[C@@H](S(N)(=O)=O)C3)cc2n1` [Compound 115, (3R)-1-[(2R)-2-[[4-(2-chloro-4-fluoro-phenyl)-2-methyl-7-quinolyl]oxy]propanoyl]piperidine-3-sulfonamide], the IC50 in test [1] lay within 1000 to 10000 nM; in test [2], 50 to 500 nM.
With `C[C@@H](Oc1ccc2c(-c3c(Cl)cc(F)cc3Cl)ccnc2n1)C(=O)N1CCC[C@H](CC(=O)O)C1` [Compound 220, 2-[(3R)-1-[(2R)-2-[[5-(2,6-dichloro-4-fluoro-phenyl)-1,8-naphthyridin-2-yl]oxy]propanoyl]-3-piperidyl]acetic acid], the IC50 in test [1] was 20 to 100 nM; in test [2] it was less than 10 nM.
For `C[C@@H](Oc1ccc2c(-c3ccccc3Cl)cc(Cl)nc2c1)C(=O)N1CCC[C@H](C(=O)O)C1` [Compound 34, (3S)-1-[(2R)-2-[[2-chloro-4-(2-chlorophenyl)-7-quinolyl]oxy]propanoyl]piperidine-3-carboxylic acid] the same measures were 100 to 1000 nM and 10 to 50 nM.
As to `C[C@@H](Oc1ccc2c(-c3ccc(F)cc3Cl)ccnc2c1)C(=O)N1CCC2(CC1)COC2` [Compound 210, (2R)-2-[[4-(2-chloro-4-fluoro-phenyl)-7-quinolyl]oxy]-1-(2-oxa-7-azaspiro[3.5]nonan-7-yl)propan-1-one], the results for the IC50 in test [1] and in test [2] were 100 to 1000 nM and 10 to 50 nM, respectively.
As to `Cc1ccccc1-c1cc(Cl)nc2cc(O[C@H](C)C(=O)N3CCC[C@H](C(=O)O)C3)ccc12` [Compound 25, (3S)-1-[(2R)-2-[[2-chloro-4-(o-tolyl)-7-quinolyl]oxy]propanoyl]piperidine-3-carboxylic acid], the values for the IC50 in test [1] and in test [2] were 20 to 100 nM and 10 to 50 nM, respectively.
With `Cc1cc(F)ccc1-c1cc(Cl)nc2cc(O[C@H](C)C(=O)N3CCC[C@H](C(=O)O)C3)ccc12` [Compound 35, (3S)-1-[(2R)-2-[[2-chloro-4-(4-fluoro-2-methyl-phenyl)-7-quinolyl]oxy]propanoyl]piperidine-3-carboxylic acid], the IC50 in test [1] was 100 to 1000 nM; in test [2] it was less than 10 nM.
For `Cc1cccc(C)c1-c1ccnc2cc(O[C@H](C)C(=O)N3CCC[C@@H](CC(=O)O)C3)ccc12` [Compound 5, 2-[(3S)-1-[(2R)-2-[[4-(2,6-dimethylphenyl)-7-quinolyl]oxy]propanoyl]-3-piperidyl]acetic acid], the IC50 in test [1] was less than 20 nM; in test [2], less than 10 nM.
For `CCOC(=O)[C@@H](C)Oc1ccc2c(-c3ccccc3Cl)ccnc2c1` [Compound 50, ethyl (2R)-2-[[4-(2-chlorophenyl)-7-quinolyl]oxy]propanoate], the IC50 in test [1] lay in the range of 100 to 1000 nM; in test [2], 10 to 50 nM.
For `C[C@@H](Oc1ccc2c(-c3ccccc3)ccnc2c1)C(=O)N1CCC[C@H](C(=O)O)C1` [Compound 66, (3S)-1-[(2R)-2-[(4-phenyl-7-quinolyl)oxy]propanoyl]piperidine-3-carboxylic acid] the same measures were 100 to 1000 nM and 10 to 50 nM.
For `CCOC(=O)[C@H]1CCCN(C(=O)[C@@H](C)Oc2ccc3c(-c4ccc(F)cc4Cl)ccnc3c2)C1` [Compound 27, ethyl (3S)-1-[(2R)-2-[[4-(2-chloro-4-fluoro-phenyl)-7-quinolyl]oxy]propanoyl]piperidine-3-carboxylate] the same measures were 20 to 100 nM and 500 to 5000 nM.
The matching figures for `Cc1cc(F)cc(C)c1-c1ccnc2cc(O[C@H](C)C(=O)N3C(C)CCCC3C)ccc12` (mixture of isomers) [Compound 191, rac-(2R)-1-(2,6-dimethyl-1-piperidyl)-2-[[4-(4-fluoro-2,6-dimethyl-phenyl)-7-quinolyl]oxy]propan-1-one]: less than 20 nM and less than 10 nM.
Regarding `C[C@@H](Oc1ccc2c(-c3c(Cl)cc(F)cc3Cl)ccnc2c1)C(=O)N1CCCC(C(C)(C)C(=O)O)C1` (stereo partly drawn) [Compound 195, 2-methyl-2-[1-[rac-(2R)-2-[[4-(2,6-dichloro-4-fluoro-phenyl)-7-quinolyl]oxy]propanoyl]-3-piperidyl]propanoic acid], the IC50 is 20 to 100 nM in test [1] and 10 to 50 nM in test [2].
Regarding `CC(C)NC(=O)[C@@H](C)Oc1ccc2c(-c3ccc(F)cc3Cl)ccnc2c1` [Compound 61, (2R)-2-[[4-(2-chloro-4-fluoro-phenyl)-7-quinolyl]oxy]-N-isopropyl-propanamide], the IC50 in test [1] was 100 to 1000 nM; in test [2], 50 to 500 nM.
For `C[C@@H](Oc1ccc2c(-c3ccc(F)cc3Cl)ccnc2c1)C(=O)Nc1ccc(C(=O)O)cc1` [Compound 60, 4-[[(2R)-2-[[4-(2-chloro-4-fluoro-phenyl)-7-quinolyl]oxy]propanoyl]amino]benzoic acid] the same measures were 100 to 1000 nM and 50 to 500 nM.
The matching figures for `C[C@@H](Oc1ccc2c(-c3ccc(F)cc3Cl)ccnc2c1)C(=O)N1CCC=C(C(=O)O)C1` [Compound 219, 1-[(2R)-2-[[4-(2-chloro-4-fluoro-phenyl)-7-quinolyl]oxy]propanoyl]-3,6-dihydro-2H-pyridine-5-carboxylic acid]: 20 to 100 nM and 50 to 500 nM.
`O=C(O)[C@H]1CCCN(C(=O)COc2ccc3c(-c4ccccc4Cl)ccnc3c2)C1` [Compound 46, (3S)-1-[2-[[4-(2-chlorophenyl)-7-quinolyl]oxy]acetyl]piperidine-3-carboxylic acid]: the IC50 was 100 to 1000 nM in test [1] and 50 to 500 nM in test [2].
The matching figures for `Cc1ccccc1-c1cc(Cl)nc2cc(O[C@H](C)C(=O)OC(C)(C)C)ccc12` [Compound 73, tert-butyl (2R)-2-[[2-chloro-4-(o-tolyl)-7-quinolyl]oxy]propanoate]: 100 to 1000 nM and 50 to 500 nM.
The matching figures for `C[C@@H](Oc1ccc2c(-c3ccc(F)cc3Cl)ccnc2c1)C(=O)N1CCC[C@@](C)(C(=O)O)C1` [Compound 198, (3R)-1-[(2R)-2-[[4-(2-chloro-4-fluoro-phenyl)-7-quinolyl]oxy]propanoyl]-3-methyl-piperidine-3-carboxylic acid]: 20 to 100 nM and less than 10 nM.
On to `Cc1cc(F)cc(C)c1-c1ccnc2cc(O[C@H](C)C(=O)N3CCCC[C@H]3C)ccc12` [Compound 187, (2R)-2-[[4-(4-fluoro-2,6-dimethyl-phenyl)-7-quinolyl]oxy]-1-[(2R)-2-methyl-1-piperidyl]propan-1-one], for which the values for the IC50 in test [1] and in test [2] were less than 20 nM and less than 10 nM, respectively.
For `Cc1cc(-c2ccc(F)cc2Cl)c2ccc(O[C@H](C)C(=O)N3CCC[C@H](CC(=O)O)C3)cc2n1` [Compound 101, 2-[(3R)-1-[(2R)-2-[[4-(2-chloro-4-fluoro-phenyl)-2-methyl-7-quinolyl]oxy]propanoyl]-3-piperidyl]acetic acid] the same measures were 1000 to 10000 nM and 500 to 5000 nM.
With `C[C@@H](Oc1ccc2c(-c3ccccc3Cl)cc(Cl)nc2c1)C(=O)N1CCC[C@H](CC(=O)O)C1` [Compound 83, 2-[(3R)-1-[(2R)-2-[[2-chloro-4-(2-chlorophenyl)-7-quinolyl]oxy]propanoyl]-3-piperidyl]acetic acid], the IC50 in test [1] lay within 1000 to 10000 nM; in test [2] it was 500 to 5000 nM.
Consider `C[C@@H](Oc1ccc2c(-c3ccc(F)cc3Cl)ccnc2n1)C(=O)N1CCC[C@H](CC(=O)O)C1` [Compound 128, 2-[(3R)-1-[(2R)-2-[[5-(2-chloro-4-fluoro-phenyl)-1,8-naphthyridin-2-yl]oxy]propanoyl]-3-piperidyl]acetic acid], for which the figures for the IC50 in test [1] and in test [2] were 100 to 1000 nM and 50 to 500 nM, respectively.
The matching figures for `CC(=O)N(O)[C@H]1CCCN(C(=O)[C@@H](C)Oc2ccc3c(-c4c(C)cc(F)cc4C)ccnc3c2)C1` [Compound 185, N-[(3S)-1-[(2R)-2-[[4-(4-fluoro-2,6-dimethyl-phenyl)-7-quinolyl]oxy]propanoyl]-3-piperidyl]-N-hydroxy-acetamide]: less than 20 nM and less than 10 nM.
For `Cc1cc(F)cc(C)c1-c1ccnc2cc(O[C@H](C)C(=O)N3CCCC(C4(O)CC4)C3)ccc12` (mixture of isomers) [Compound 180, rac-(2R)-2-[[4-(4-fluoro-2,6-dimethyl-phenyl)-7-quinolyl]oxy]-1-[3-(1-hydroxycyclopropyl)-1-piperidyl]propan-1-one] the same measures were less than 20 nM and less than 10 nM.
On to `C[C@@H](Oc1ccc2c(-c3ccc(F)cc3Cl)ccnc2c1)C(=O)N1CC(C)(C)NC(C)(C)C1` [Compound 215, (2R)-2-[[4-(2-chloro-4-fluoro-phenyl)-7-quinolyl]oxy]-1-(3,3,5,5-tetramethylpiperazin-1-yl)propan-1-one], for which the IC50 in test [1] was in the range of 100 to 1000 nM; in test [2], 50 to 500 nM.
Take `C[C@@H](Oc1ccc2c(-c3ccccc3Cl)cc(Cl)nc2c1)C(=O)N1CCC[C@H](C(N)=O)C1` [Compound 76, (3S)-1-[(2R)-2-[[2-chloro-4-(2-chlorophenyl)-7-quinolyl]oxy]propanoyl]piperidine-3-carboxamide]: the IC50 in test [1] lay within 100 to 1000 nM; in test [2], 10 to 50 nM.
